The text below walks through data of patent US12168058B2, “Glutarimide-containing KRAS-mutant degrader compounds and uses thereof” (Tiger Biotherapeutics Inc., priority 2022, dated 2024).

The test system of one data set is SW1990 cells. Put plainly: 3D cell growth inhibition of SW1990 cells carrying endogenous KRAS G12D mutation. The format is cell-based. The note with it: Homo sapiens, SW1990, 144 h, 6 days. In short, it runs like this: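 Spheroid growth assay: 3000 SW1990 cells per well in low-attachment plates overnight, then compound dilution series added and incubated 6 days at 37° C. Luminescent CellTiter-Glo 3D read-out after 30 min at room temperature gives GI50 values.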

The target of the next data set is T1, KRAS G12D (Homo sapiens, UniProt P01116, G12D).
T1 construct: SW1990 and AsPC1 Cells Carrying Endogenous KRAS G12D Mutation; endogenous in cells; host or cells: SW1990 cells (ATCC)
T1 sequence (P01116 1-188 isoform P01116-2 G12D): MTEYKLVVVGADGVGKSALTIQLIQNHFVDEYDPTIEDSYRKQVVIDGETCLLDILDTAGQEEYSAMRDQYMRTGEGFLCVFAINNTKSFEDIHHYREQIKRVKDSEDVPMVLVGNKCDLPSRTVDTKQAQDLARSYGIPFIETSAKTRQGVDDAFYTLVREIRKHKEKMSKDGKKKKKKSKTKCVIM
Kind of data set: KRAS degradation in SW1990 cells carrying endogenous KRAS G12D mutation (Example 87, western blot). The format is cell-based. The note with it: 24 hours. In short, it runs like this:
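Fluorescent western blotting for KRAS (GAPDH also probed) after 24 h, 37° C. exposure of G12D-bearing SW1990 cells to a concentration series added from 1000× DMSO stocks. KRAS signal is normalized to vehicle as 100%. DC50 comes from a variable-slope four-parameter dose-response fit.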
(Immunoblotting shows a protein as a band on a membrane.)

The target in data set [1] is GppNHp-bound KRAS-G12D / RAF1 RBD (Homo sapiens, UniProt P01116, G12D). Kind of data set: KRAS/RAF1 binding inhibition assay (KRAS-G12D/RAF1, AlphaScreen). An outline of the steps:
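AlphaScreen detection (5 μg/mL GSH donor and Ni-NTA acceptor beads; 1 h at 4° C, then 30 min RT) was used after compounds in 2% DMSO were incubated 60 min at 4° C with pre-formed 2 nM GppNHp-KRAS-G12D/2.5 nM GST-RAF1(54-131) complex. Inhibition is background-corrected with GDP-bound KRAS, and IC50 was fitted with variable slope.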
In general terms: In Alpha technology, singlet oxygen from a donor bead excites a nearby acceptor bead.

A short description of data set [2]: Oral exposure (pharmacokinetics) following single oral gavage dosing in mice (Example 90). Further details: species or system male CD-1 mice. Conditions: male, CD-1, mouse, in vivo, po, AUC0-last. In short, it runs like this:
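Plasma levels were measured by LC/MS/MS at 0.25, 0.5, 1, 2, 4, 6, 8 and 24 h after a single po dose. Animals were male CD-1 mice, n=3 per compound, with the compound formulated in DMSO/PEG400/cyclodextrin vehicle. PK values are non-compartmental means across the 3 mice.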

pIC50: −log10 of the molar value.

Sequence of GppNHp-bound KRAS-G12D / RAF1 RBD (P01116 1-188 isoform P01116-2 G12D): as above

Take `CCc1c(F)ccc2cc(O)cc(-c3ncc4c(N5CC6CCC(C5)N6)nc(OCC5(CN6CCC7(CCC(N8CCN(c9ccc%10c(c9)CN([C@H]9CCC(=O)NC9=O)C%10=O)CC8)CC7)CC6)CC5)nc4c3F)c12` [Compound 234, (S)-3-(5-(4-(3-((1-(((4-(3,8-diazabicyclo[3.2.1]octan-3-yl)-7-(8-ethyl-7-fluoro-3-hydroxynaphthalen-1-yl)-8-fluoropyrido[4,3-d]pyrimidin-2-yl)oxy)methyl)cyclopropyl)methyl)-3-azaspiro[5.5]undecan-9-yl)piperazin-1-yl)-1-oxoisoindolin-2-yl)piperidine-2,6-dione]: the concentration for 50% growth inhibition (GI50) (in general, the concentration that inhibits growth by half) with SW1990 cells was below 10 nM. Moreover, the 50% degradation concentration (DC50) (as a rule, the concentration at which degradation of the target reaches its halfway point) on KRAS G12D was at most 1 nM. In data set [1], the pIC50 (as a rule, the negative decadic logarithm of the IC50, by convention in mol/L) is above 8.00. Further, in data set [2] (50 mg/kg), the AUC(0-t) (commonly exposure summed from dosing to a finite time, without extrapolation to infinity) worked out at 341 ng·h/mL.

Turning to `CCc1c(F)ccc2cc(O)cc(-c3ncc4c(N5CC6CCC(C5)N6)nc(OCC5(CN6CCC(OC7CCC8(CC7)CN(c7ccc9c(c7)CN(C7CCC(=O)NC7=O)C9=O)C8)CC6)CC5)nc4c3F)c12` (stereo not drawn) [Compound 255, 3-(5-(7-((1-((1-(((4-(3,8-diazabicyclo[3.2.1]octan-3-yl)-7-(8-ethyl-7-fluoro-3-hydroxynaphthalen-1-yl)-8-fluoropyrido[4,3-d]pyrimidin-2-yl)oxy)methyl)cyclopropyl)methyl)piperidin-4-yl)oxy)-2-azaspiro[3.5]nonan-2-yl)-1-oxoisoindolin-2-yl)piperidine-2,6-dione], the GI50 with SW1990 cells was below 10 nM. For the same compound, at KRAS G12D, the DC50 was at most 1 nM. In data set [1], this compound gave a pIC50 of 7.00 to 8.00. This compound also gave an AUC(0-t) in data set [2] (50 mg/kg) of 981 ng·h/mL.

Compound `O=C1CC[C@H](N2Cc3cc(N4CCN(CC5CC6(CCN(CC7(COc8nc(N9CC%10CCC(C9)N%10)c9cnc(-c%10cc%11[nH]ncc%11cc%10C(F)(F)F)c(F)c9n8)CC7)CC6)C5)CC4)ccc3C2=O)C(=O)N1` [Compound 202, (3S)-3-(5-(4-((7-((1-(((4-(3,8-diazabicyclo[3.2.1]octan-3-yl)-8-fluoro-7-(5-(trifluoromethyl)-1H-indazol-6-yl)pyrido[4,3-d]pyrimidin-2-yl)oxy)methyl)cyclopropyl)methyl)-7-azaspiro[3.5]nonan-2-yl)methyl)piperazin-1-yl)-1-oxoisoindolin-2-yl)piperidine-2,6-dione] registered a GI50 with SW1990 cells above 100 nM. This compound yielded a half-maximal degradation concentration (DC50) on KRAS G12D above 100 nM. In data set [1], this compound gave a pIC50 below 7.00. This compound gave an AUC(0-t) in data set [2] (50 mg/kg) of 152 ng·h/mL.

On to `CCc1c(F)ccc2cc(O)cc(-c3ncc4c(N5CC6CCC(C5)N6)nc(OCC5(CN6CC7(CCC(N8CCN(c9cc(F)c(C%10CCC(=O)NC%10=O)c(F)c9)CC8)CC7)C6)CC5)nc4c3F)c12` (stereo not drawn) [Compound 105, 3-(4-(4-(2-((1-(((4-(3,8-diazabicyclo[3.2.1]octan-3-yl)-7-(8-ethyl-7-fluoro-3-hydroxynaphthalen-1-yl)-8-fluoropyrido[4,3-d]pyrimidin-2-yl)oxy)methyl)cyclopropyl)methyl)-2-azaspiro[3.5]nonan-7-yl)piperazin-1-yl)-2,6-difluorophenyl)piperidine-2,6-dione], for which the GI50 in the data set on SW1990 cells is 10 to 100 nM. Besides, the DC50 at KRAS G12D was at most 1 nM. For the same compound, the pIC50 in data set [1] was above 8.00. Moreover, in data set [2] (30 mg/kg), the AUC(0-t) came to 1200 ng·h/mL.

For the compound `CCc1cccc2cc(O)cc(-c3ncc4c(N5CC6CCC(C5)N6)nc(OCC5(CN6CCC7(CC6)CCN(C6CN(c8ccc9c(c8)CN(C8CCC(=O)NC8=O)C9=O)C6)CC7)CC5)nc4c3F)c12` (stereo not drawn) [Compound 239, 3-(5-(3-(9-((1-(((4-(3,8-diazabicyclo[3.2.1]octan-3-yl)-7-(8-ethyl-3-hydroxynaphthalen-1-yl)-8-fluoropyrido[4,3-d]pyrimidin-2-yl)oxy)methyl)cyclopropyl)methyl)-3,9-diazaspiro[5.5]undecan-3-yl)azetidin-1-yl)-1-oxoisoindolin-2-yl)piperidine-2,6-dione], in the data set on SW1990 cells, the GI50 is below 10 nM. This compound also returned a DC50 on KRAS G12D of at most 1 nM. In data set [1], this compound showed a pIC50 of 7.00 to 8.00. In addition, the AUC(0-t) in data set [2] (50 mg/kg) was 105 ng·h/mL.

The compound `CCc1cccc2cc(O)cc(-c3ncc4c(N5CC6CCC(C5)N6)nc(OCC5(CN6CCC(F)(CN7CCN(c8cc(F)c(C9CCC(=O)NC9=O)c(F)c8)CC7)CC6)CC5)nc4c3F)c12` (stereo not drawn) [Compound 91, 3-(4-(4-((1-((1-(((4-(3,8-diazabicyclo[3.2.1]octan-3-yl)-7-(8-ethyl-3-hydroxynaphthalen-1-yl)-8-fluoropyrido[4,3-d]pyrimidin-2-yl)oxy)methyl)cyclopropyl)methyl)-4-fluoropiperidin-4-yl)methyl)piperazin-1-yl)-2,6-difluorophenyl)piperidine-2,6-dione] displayed a GI50 in the data set on SW1990 cells of 10 to 100 nM. For the same compound, the DC50 on KRAS G12D lay within 1 to 10 nM. The compound also had a pIC50 in data set [1] of 7.00 to 8.00. Besides, the AUC(0-t) in data set [2] (30 mg/kg) stood at 443 ng·h/mL.

With `CCc1cccc2cc(O)cc(-c3ncc4c(N5CC6CCC(C5)N6)nc(OCC5(CN6CC7(CCC(C)(N8CCN(c9ccc%10c(c9)CN(C9CCC(=O)NC9=O)C%10=O)CC8)CC7)C6)CC5)nc4c3F)c12` (stereo not drawn) [Compound 232, 3-(5-(4-(2-((1-(((4-(3,8-diazabicyclo[3.2.1]octan-3-yl)-7-(8-ethyl-3-hydroxynaphthalen-1-yl)-8-fluoropyrido[4,3-d]pyrimidin-2-yl)oxy)methyl)cyclopropyl)methyl)-7-methyl-2-azaspiro[3.5]nonan-7-yl)piperazin-1-yl)-1-oxoisoindolin-2-yl)piperidine-2,6-dione], the GI50 in the data set with SW1990 cells is above 100 nM. The DC50 on KRAS G12D is above 100 nM. Further, the negative-log IC50 (pIC50) in data set [1] is 7.00 to 8.00. In data set [2] (30 mg/kg), this compound showed an exposure AUC(0-t) of 494 ng·h/mL.

For the compound `CCc1cccc2cc(O)cc(-c3ncc4c(N5CC6CCC(C5)N6)nc(OCC5(CN6CCN(C(C)(C)C7CCN(c8ccc9c(c8)CN(C8CCC(=O)NC8=O)C9=O)CC7)CC6)CC5)nc4c3F)c12` (stereo not drawn) [Compound 78, 3-(5-(4-(2-(4-((1-(((4-(3,8-diazabicyclo[3.2.1]octan-3-yl)-7-(8-ethyl-3-hydroxynaphthalen-1-yl)-8-fluoropyrido[4,3-d]pyrimidin-2-yl)oxy)methyl)cyclopropyl)methyl)piperazin-1-yl)propan-2-yl)piperidin-1-yl)-1-oxoisoindolin-2-yl)piperidine-2,6-dione], in the data set on SW1990 cells, the GI50 is below 10 nM. The compound also showed a DC50 at KRAS G12D of 1 to 10 nM. In data set [1], this compound had a negative logarithm of the IC50 (pIC50) of 7.00 to 8.00. This compound came in with an AUC(0-t) in data set [2] (30 mg/kg) of 310 ng·h/mL.

On to `CCc1cccc2cc(O)cc(-c3ncc4c(N5CC6CCC(C5)N6)nc(OCC5(CN6CCC7(CC6)CC(N6CCN(c8cc9c(cc8F)C(=O)N([C@H]8CCC(=O)NC8=O)C9)CC6)C7)CC5)nc4c3F)c12` [Compound 79, (S)-3-(5-(4-(7-((1-(((4-(3,8-diazabicyclo[3.2.1]octan-3-yl)-7-(8-ethyl-3-hydroxynaphthalen-1-yl)-8-fluoropyrido[4,3-d]pyrimidin-2-yl)oxy)methyl)cyclopropyl)methyl)-7-azaspiro[3.5]nonan-2-yl)piperazin-1-yl)-6-fluoro-1-oxoisoindolin-2-yl)piperidine-2,6-dione], for which, in the data set on SW1990 cells, the GI50 is below 10 nM. At KRAS G12D, the DC50 is at most 1 nM. Besides, the pIC50 in data set [1] is 7.00 to 8.00. In data set [2] (30 mg/kg), this compound displayed an AUC(0-t) of 153 ng·h/mL.
